These results are taken from patent US20250275993A1, “GLYCOSYLATION INHIBITORS AS THERAPEUTICS FOR STROKE” (The Regents of the University of California, priority 2022, published 2025).

One assay concerns BCEC. The experiment in a line: BCEC transwell migration assay. It is filed as cell-based, bovine. Particulars: ManN at 40 μM. The protocol: HUVECs (passage 6-8) were cultured and serum-starved as described in “Western Blots”. Ten thousand cells in […] of EBM-2 medium were then added to the upper chamber of […] pore size cell culture inserts (Falcon) coated with 0.1% gelatin. The lower compartment was filled with […] EBM-2 medium containing various agents. The plates were incubated at 37° C. to allow migration. After 4 hrs, cells were fixed with 4% PFA for 20 min and then stained with crystal violet (Sigma-Aldrich) for 20 min at RT. Migrated cells on the bottom side of the insert membrane were quantified by counting whole area of the insert at 40× magnification. The experiments were carried out in triplicate and repeated three times. BCEC migration was set up similarly, except that wells were coated with FN, cells were suspended in 1% serum media and migration time was 18-24 hrs.

The subject of another assay is skin wound. The experiment in a line: Skin wound healing model (splinted wound). It is filed as in vivo, mouse. Particulars: topical 20 μg daily; mice; PBS group 81.5%. From the text: The model has been previously described. Briefly, C57BL/6 female mice (8-10 weeks old) were obtained from Jackson labs (Sacramento, CA). A fresh, full-thickness punch wound (4 mm diameter) using a punch (Acu Punch, Acuderm inc. Ft. Lauderdale, FL) splinted with a sterile neoprene ring (6-mm outer diameter and 4-mm inner diameter), fastened with 5-6 sutures (4-0 nylon) under the influence of Isoflurane was created on the back of the animal in a Class II Biological Safety Cabinet. For all surgical procedures, sterile technique was followed. Buprenorphine was given subcutaneously prior to awakening from anesthesia for anticipated pain. Mice were monitored until fully awake and were housed individually to minimize damage/biting/fighting to the surgical site. […] Treatment agents were prepared in PBS, sterile-filtered and 25 μl solution was applied daily directly to a wound bed for the first 4-5 days under the influence of Isoflurane, followed by daily observation. Wound closure was monitored by regular imaging and the wound area was quantified using ImageJ (National Institutes of Health, Bethesda, MD, USA). […] Epithelial gap was measured histomorphometrically using AxioVision LE Rel.4.4 software. […] Small vessels stained positive for CD31 were counted microscopically on 10 fields (20×) taken around the wound.

Assay [1] has as its target T1, α-mannosidase from Jack Bean (Canavalia ensiformis, UniProt C0HJB3).
T1 construct: purchased M7257
The experiment in a line: α-mannosidase activity assay. It is filed as biochemical. Particulars: 400 μM. The protocol:
a-mannosidase activity was measured using substrate p-nitrophenyl α-mannopyranoside (1 mM). Enzyme from Jack Bean (M7257) (final concentration of 0.077 U) was incubated at 37° C. in a final volume of 50 μl of 50 mM potassium phosphate buffer, pH 7.5. α-glucosidase was assayed with substrate p-nitrophenyl a-glucoside (7 mM). Enzyme from Saccharomyces cerevisiae-type 1 (Sigma, G5003) (final concentration of 0.1 U) was incubated at 37° C. in a final volume of 50 μl of PBS, pH 7.5. β-Glucosidase was assayed with substrate 4-nitrophenyl β-D-glucopyranoside (Roche). Enzyme from almond (Sigma, G0395) (final concentration of 0.002 U) was incubated at 37° C. in a final volume of 50 μl of PBS, pH 7.5 […]. The incubation was stopped by addition of an equal volume of acid-based stop solution (R&D systems, 895032). Enzymatic activity was measured at 405 nm. α-glucosidase from Saccharomyces cerevisiae type I (G5003) with p-nitrophenyl α-D-glucopyranoside (Sigma, N1377) as the substrate.

The test system of a further assay is NIH3T3 fibroblasts. Description: NIH3T3 proliferation assay. It is filed as cell-based, mouse. The settings on record: alone or in combination with growth factors. As for the experimental part: Proliferation assays with fibroblasts were done in low-glucose DMEM containing 1% FBS, with or without 10 ng/ml bFGF, or 100 ng/ml human EGF and the assay was ended at day 3. ARPE-19 cells were gently lifted with 0.025% trypsin and plated in RtEGM media (Clonetics) containing 2% FBS, L-glutamine, human bFGF and GA-1000. Once cells were attached to plates, serum-free RtEGM media was used to maintain the cultures. For proliferation assays, 1500 human RPE cells were plated into 96-well plates in low-glucose DMEM containing 1% FBS. A673, U87MG, Calu6 and AML12 cells were grown until confluent and were then harvested and re-suspended in appropriate assay media. For proliferation assays, cells were plated at the density of 1000-2000 cells/well in low-glucose DMEM containing 5% FBS or otherwise stated. Bovine pituitary cells (pituitary folliculostellate cells) were isolated as previously described. For proliferation assays with human epidermal keratinocytes, human DMVECs and human dermal fibroblast cells, 1000 cells/well were plated in low-glucose DMEM containing 1% FBS with or without various growth factors. The assay was ended at day 3 for bovine pituitary cells and at day 4 for all the other cell types. […] Four days later, tumor cell growth was measured by the MTS assay (Promega, Madison, WI), a colorimetric assay that measures metabolic activity of viable cells. […]

Another assay deals with HUVEC. The experiment in a line: HUVEC scratch assay. Particulars: 40 μM ManN in combination with 50 ng/ml VEGF. In kind it is cell-based, human. The protocol: BCECs (passage 6-10) and HUVEC (passage 6-8) were used in this assay.
Cells were grown until about 80% confluency in 6-well plates, washed twice with PBS and then starved in serum-free DMEM (low Glucose, Hyclone) for 5 hrs before making a “scratch” using 1 ml tip. Cell monolayers were briefly washed once with serum-free media, followed by various treatments in media containing 1% FBS. 48 hrs later, the assay was stopped by adding 2 ml 4% paraformaldehyde. 20 min later, fixed cells were stained with 1 ml Crystal Violet (Sigma). Plates were washed gently under the running tap water and air-dried before taking pictures. Images were acquired by ZEISS Discovery V8 SteREO microscopy equipped with PixeLINK Megapixel FireWire camera. Quantification of wound closure was done using AxioVision LE Rel.4.4 software. Six images were taken for each sample and six measurements (in pixel) were made on each image using AxioVision LE Re1.4.4 software.

T1 sequence (C0HJB3 whole entry): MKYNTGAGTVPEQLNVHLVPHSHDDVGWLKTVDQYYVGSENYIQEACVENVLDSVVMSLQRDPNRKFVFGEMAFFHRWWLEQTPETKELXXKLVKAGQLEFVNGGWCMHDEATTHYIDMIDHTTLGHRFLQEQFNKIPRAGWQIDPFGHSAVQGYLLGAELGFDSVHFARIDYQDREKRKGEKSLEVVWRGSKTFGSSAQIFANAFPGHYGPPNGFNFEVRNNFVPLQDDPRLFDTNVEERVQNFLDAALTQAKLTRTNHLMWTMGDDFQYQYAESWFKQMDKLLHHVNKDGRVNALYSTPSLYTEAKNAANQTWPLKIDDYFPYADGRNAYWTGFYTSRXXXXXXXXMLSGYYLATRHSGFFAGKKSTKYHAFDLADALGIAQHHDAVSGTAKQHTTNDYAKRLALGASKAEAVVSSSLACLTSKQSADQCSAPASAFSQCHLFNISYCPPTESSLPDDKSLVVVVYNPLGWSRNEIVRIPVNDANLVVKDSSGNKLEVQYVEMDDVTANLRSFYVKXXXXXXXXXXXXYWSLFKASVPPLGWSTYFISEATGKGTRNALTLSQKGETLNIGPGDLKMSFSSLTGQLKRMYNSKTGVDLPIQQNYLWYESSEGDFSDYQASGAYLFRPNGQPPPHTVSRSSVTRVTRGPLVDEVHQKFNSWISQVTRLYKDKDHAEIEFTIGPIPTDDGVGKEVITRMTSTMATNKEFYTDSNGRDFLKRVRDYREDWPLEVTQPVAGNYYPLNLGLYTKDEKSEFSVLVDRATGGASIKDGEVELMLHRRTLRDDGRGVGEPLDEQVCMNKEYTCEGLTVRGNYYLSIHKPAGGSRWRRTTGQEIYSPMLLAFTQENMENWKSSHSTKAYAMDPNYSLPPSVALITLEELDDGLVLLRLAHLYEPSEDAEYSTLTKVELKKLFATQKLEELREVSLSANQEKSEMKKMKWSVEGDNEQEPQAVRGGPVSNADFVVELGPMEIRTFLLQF

As for `N[C@H](C=O)[C@@H](O)[C@H](O)[C@H](O)CO` [ManN, 2-Amino-2-deoxy-D-mannose], the “additivity with VEGF in BCEC migration” value in the assay with BCEC was “significant additivity with VEGF in promoting BCEC migration”. Also, the “average closure of the wound on day 4” value in the assay on skin wound is recorded as 75.6%. Also, the “inhibitory activity on α-mannosidase” value in assay [1] is recorded as “inhibitory activity”. Also, the “proliferation of NIH3T3 cells” value in the assay with NIH3T3 fibroblasts is given as “no increases in proliferation”. Moreover, the HUVEC wound closure entry in the assay on HUVEC was “stimulation of migration and wound closure”.
